Results published in patent publication US20230248850A1, “GOLD MOLECULAR CLUSTERS AND METHODS OF USING SAME FOR NEAR-INFRARED IMAGING” (The Board of Trustees of the Leland Stanford Junior …, priority 2022, published 2023).
Entries after “also recorded” stand apart in the source; their conditions may differ.

Assays:
serum proteins (FBS) = assay: in vitro; assay type: in vitro ADME; details: bovine
Description: Evaluated next were the serum protein binding capabilities of Au-GSH cluster and Au-PC conjugate with FBS and compared to that of ICG. Briefly, the clusters and ICG were incubated with FBS for 1 h at 37° C. (FIG. 12). Afterwards, the solutions were filtered using Amicon 50 kDa centrifuge filters (FIGS. 12A and 12B). Au clusters bound to serum proteins will not pass filter while free unbound clusters will be lost to the filtrate. The optical density (OD) of filtrate (in case of Au-GSH and Au-PC) and retentate (in case of ICG) at 808 nm were measured and the corresponding serum protein binding efficiencies were calculated (FIG. 12C). The schematics of the experiments, figures, and absorbance values of Au-GSH+FBS and Au-PC+FBS filtrates as well as ICG+FBS retentate can be found in FIG. 12. The serum protein binding efficiencies for Au-GSH cluster, Au-PC conjugate and ICG were calculated to be 2.7%, 1.74% and 94.5%, respectively.

Balb/c mice [1] = assay: NIR-II lymph node imaging after subcutaneous injection at tail base; assay type: in vivo, mouse; details: s.c. tail base
Description: Investigated next was LN draining post subcutaneous (s.c.) injection of the three probes at the mouse tail base (FIG. 5) (5-7 weeks old female Balb/c, n=3 in each group). The Au-PC clusters within 3 min p.i. migrated to the lymphatic vessels connecting the injection site to the draining iLN (FIG. 5A and FIG. 23). Strong signals in the iLN were seen up to 1 h and decreased by ˜40% 2 h p.i. (FIG. 5D). […] In contrast, upon ICG administration (FIG. 5C), the fluorescent signal in iLN appeared 3 min p.i. but with an intensity much lower compared to that of Au-PC probe at the same time postinjection (FIG. 5F). After 2-3 h p.i. (or even later) ICG signal in the iLN reached peak intensity and persisted. […] The retention of ICG at the injection site persisted over an extended period of time (FIG. 5F) much longer than Au-PC. The Au-PC molecular clusters were also unique with little retention at subcutaneous injection sites among various nanomaterials (with well-coated hydrophilic layers such as PEG) including quantum dots (QDs), carbon nanotubes (CNTs) and organic NIR II dyes^67,68. The trapping of NIR-II probes at the injection site and staining it for weeks is undesirable due to potential long-term side effects.
(§1) The animal experiments and imaging in the NIR-II window were conducted in a two-dimensional, water-cooled 640×512 InGaAs array (Ninox 640, Raptor Photonics). The clusters were excited by an 808-nm continuous-wave diode laser at a power density of 70 mW/cm^2. 1100 nm long-pass filter was used in all the imaging experiments unless stated otherwise. The fluorescent probes were administered through tail vein (intravenous, i.v.), tail base (subcutaneous, s.c.) and (peri)intratumoral (i.t.). NIR-II fluorescence images were recorded at 3 min, 10 min, 30 min, 1 h, 3 h, 6 h, 24 h, 48 h p.i.

Balb/c mice [2] = assay: In vivo NIR-II fluorescence imaging after intravenous injection; parameters: species or system mouse; details: i.v. injection, up to 24 h p.i.
Description: In vivo, the Au-GSH and Au-PC clusters dissolved in PBS were first intravenously (i.v.) administered to mice (5-7 weeks old female Balb/c, n=3 in each group) through tail-vein injection, imaged in the >1100 nm NIR-II window and compared side by side with the clinically approved ICG dye. The bladder NIR-II signals in mice rapidly lit up, at ˜3 min postinjection (p.i) (FIG. 2A, 2B ventral view), as a consequence of kidney drainage for fast renal clearance (dorsal/lateral view images in FIGS. 13A and 14A, respectively).
as §1

[3] = tested on: mice bearing syngeneic 4T1 murine breast tumors; assay: NIR-II lymph node imaging after intra-/peri-tumoral injection, 4T1 tumors; assay type: in vivo, mouse
Description: For lymph node imaging, intra-tumor/peri-tumor administration (i.t.) of Au-PC clusters to mice (5-7 weeks old female Balb/c, n=3 in each group) bearing syngeneic 4T1 murine breast tumors and CT26 colon tumors inoculated on hindlimbs was performed. Several doses of Au-PC probes, including 4× (˜1.2 mg, tumors on both hindlimbs), 1× (˜300 μg, tumor on the right hindlimb) and ⅓× (˜100 μg, tumor on the right hindlimb) were administered (FIG. 3A, FIGS. 16 and 17). The draining inguinal lymph nodes (iLN) started to show NIR-II emission of Au-PC within ˜1 min p.i. and reached high brightness within ˜3 min p.i. (FIG. 3A, FIG. 17 for 4T1; FIG. 12A for CT26 tumor). The LN signal persisted for over 1 h in the draining iLNs (FIG. 3A) after reaching peak intensity at ˜30 min p.i., with a LN/background signal ratio ˜5-10 (FIG. 3D, FIG. 12D). […] The signal completely disappeared after […] p.i. of the Au-PC probe. The Au-PC clusters afforded rapid and effective imaging/detection of the primary tier draining LNs with much weaker signals in higher tier nodes.
3-9-week-old BALB/c female mice (weight: 15-20 g) were purchased from Charles River. The mice were housed on a 12-hour light/12-hour dark at ambient temperature =20-25° C. and humidity=50-65% in Stanford University's Veterinary Service Center. The bedding, nesting material, food and water were provided by the Stanford VSC facility. Prior to each experiment, the mice were shaved using hair-removing lotion (Nair, Softening Baby Oil). For in vivo imaging, the mice were anaesthetized by 2.5% isoflurane and oxygen as a carrying gas at a flow rate of 2 L/min. Per animal care protocols, the mice were carefully monitored during the imaging process and postrecovery period. The experimental groups consisted of n=3 mice. […]
The animal experiments and imaging in the NIR-II window were conducted in a two-dimensional, water-cooled 640×512 InGaAs array (Ninox 640, Raptor Photonics). […] NIR-II fluorescence images were recorded at 3 min, 10 min, 30 min, 1 h, 3 h, 6 h, 24 h, 48 h p.i.

[4] = Excretion by ICP-MS after intra-tumoral injection; assay type: in vivo, mouse; details: i.t. injection
Description: The biodistribution of probes was analyzed 10 min, 30 min, 24 h or 48 h postadministration. The urine, feces and major organs including the liver, spleen, heart, lungs, and kidneys were collected and digested in nitric acid (68%) for 12 h. Afterwards, the solutions were heated to 150° C. in the digestion solution (nitric acid:hydrogen peroxide=4:1) until transparent and colorless solution was obtained. The concentration of gold in each sample was measured by ICP-MS (Thermo Scientific ICAP 6300 Duo View Spectrometer).

CC1(C)C(/C=C/C=C/C=C/C=C2\N(CCCCS(=O)(=O)O)c3ccc4ccccc4c3C2(C)C)=[N+](CCCCS(=O)(=O)[O-])c2ccc3ccccc3c21 [ICG, indocyanine green]
fraction unbound at 1 h (serum proteins (FBS)): 0.055 | signal retention at 24 h p.i. (Balb/c mice [1]): significant signal still remained in the lymph node, at the injection site and in the liver | time fluorescent signal in iLN appeared (Balb/c mice [1]): 3 min | time of iLN signal peak (Balb/c mice [1]): 2 to 3 h | NIR-II signal distribution and retention in organs (Balb/c mice [2]): strong NIR-II signals were observed in liver and intestine; also recorded: no significant ICG retention in major organs | signal at tumor injection site 24 h p.i. ([3]; i.t. injection): significant signals were still detected at the tumor injection sites | time of peak lymph node intensity ([3]; i.t. injection into 4T1 tumor): 2 to 3 h | LN/background (LN/B) signal ratio ([3]; i.t. injection, 4T1 tumors, at peak intensity): 4 | excretion route [4]: liver excretory system
